Experimental data as given in patent US20030156970A1, “Sulphur-free lignin and derivatives thereof for reducing the formation of slime and deposits in industrial plants” (priority 2000, published 2003).

Tested on: slime and deposits in paper machine white water
Test: Slime and deposit formation in white water tanks, same test record as example 10 (example 12, lignin plus small quantity of biocide)
Design: species or system bacteria
Description: The white water originated from the white water I circuit of a paper machine which produces wood-free paper with carbonate filler, used painted rejects and starch for the production of the stock and runs at a slightly alkaline pH. The white water was sampled after a re-start, before any slime combating systems were used. […] Seven tanks were filled with the white water up to the 5-litre mark, the magnetic agitators were switched on, as well as the thermostatically controlled heating systems which were set to 36° C. Weighed slime measuring boards were fully immersed in the liquid. The microbial activity in the test tanks was checked by plating out on bacterial count-Agar from the company of Merck. The additions to the slime check to be compared were diluted in a suitable way and a certain quantity was added to each test tank. After 72 hours the bacterial counts were determined again and the measuring boards covered in slime were carefully weighed. After the measurements after 72 hours the slime measur8ing boards were dried at 105° C. and again weighed in order to determine the dry weight of the stored material. The dried material was then removed from the boards and incinerated in a furnace in porcelain crucibles at 550° C. The ash was weighed back in order to measure the percentage of mineral substances in the original deposits. The whole experiment was repeated with various concentrations of the individual slime combating products.
The same test record as in example 10 was followed, however using the following products

[1] = 70 ppm active (combination 50 + 20), 72 hrs

Compound: O=[N+]([O-])C(Br)(CO)CO [bromiumnitropropane diol, 2-bromium-2-nitropropane-1,3-diol]
- Ash content in deposits in % of the solids content of the control [1]: 17%
- Dry weight of the deposit [1]: 1.026 g
- Moist weight of the deposit [1]: 1.020 g
- Solids content in deposit [1]: 12%
- Solids content in deposits in % of the control (70 ppm active (combination 50 + 20), 72 hrs, control = 100): 23%
- Bacterial count after 72 hrs (addition (active) 70 ppm per volume (combination 50 + 20 ppm), white water 4.7 g/l solids, start count 4.2 × 10^5): 8.1 × 10^4 CFU/ml
